Assay: Stability of tilidine mesylate in solid form, in combination with solid additives

## tilidine mesylate
  decomposition in the solid form (stability): virtually does not undergo any decomposition

Reference: patent US6579536B1, “Sustained-release pharmaceutical preparation containing tilidine mesylate as active ingredient” (Hexal AG, priority 1998, dated 2003)
